Measurements reported in ChEMBL document CHEMBL1201862, “PubChem BioAssay data set” (2004).
Several values for one entry are separate records, joined by “and”; a condition that tells them apart may be missing. Equal values may be shown once.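 Step 1: Grow cells in 96-well plates. Step 2: Expose to compound for 48 hours at 5 concentrations. Step 3: Interpolate endpoints linearly; if unreached, use highest concentration. At the GI50, growth is halved.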 Activity calls are given as the source filed them. No stated cut-off is given here; in the data, active = GI50 up to about 1.1 µM and inactive = higher. Peptide text beside a SMILES is read from it. * marks the point of attachment. Fmoc = O=C(OCC1c2ccccc2-c2ccccc21)*; Boc = CC(C)(C)OC(=O)*; OtBu = CC(C)(C)O*

Tests used:
Assay in all cases: inhibition of tumour cell growth, NCI panel, 48 h
[1] = system: Hs-578T
[2] = system: U-251
[3] = system: ACHN
[4] = system: HT-29
[5] = system: SF-539
[6] = system: M14
[7] = system: RXF 393
[8] = system: SR
[9] = system: Malme-3M
[10] = system: K562
[11] = system: MCF7
[12] = system: RPMI-8226
[13] = system: LOX IMVI
[14] = system: MOLT-4
[15] = system: OVCAR-3
[16] = system: HOP-92
[17] = system: SK-MEL-2
[18] = system: HCC 2998
[19] = system: SF-295
[20] = system: BT-549
[21] = system: OVCAR-8
[22] = system: NCI-H522
[23] = system: SNB-19
[24] = system: UACC-62
[25] = system: IGROV-1
[26] = system: SK-MEL-28
[27] = system: MDA-N
[28] = system: MDA-MB-231
[29] = system: SNB-75
[30] = system: T47D
[31] = system: NCI-H460
[32] = system: OVCAR-4
[33] = system: 786-0
[34] = system: SK-MEL-5
[35] = system: DU-145
[36] = system: SF-268
[37] = system: CAKI-1
[38] = system: UACC-257
[39] = system: KM12
[40] = system: MDA-MB-435
[41] = system: HL-60
[42] = system: TK-10
[43] = system: HCT-15
[44] = system: PC-3
[45] = system: EKVX
[46] = system: A549
[47] = system: CCRF-CEM
[48] = system: NCI-H23
[49] = system: COLO 205
[50] = system: SK-OV-3
[51] = system: UO-31
[52] = system: HCT-116
[53] = system: OVCAR-5
[54] = system: SN12C
[55] = system: SW-620
[56] = system: NCI/ADR-RES
[57] = system: NCI-H226
[58] = system: A498
[59] = system: HOP-62

Measured: GI50

CC(C)(C)OC(=O)CCC(NC(=O)OCC1c2ccccc2-c2ccccc21)C(=O)NC(Cc1c[nH]c2ccccc12)C(=O)NC(CCCCNC(=O)OC(C)(C)C)C(=O)N1CCCC1C(=O)NCC(N)=O (stereo unspecified) (Fmoc-E(OtBu)WK(Boc)PG-NH2; configuration not given here)
inactive: [1] 17.3 µM and 28.4 µM | [2] 17.3 µM and 17.2 µM | [3] 17.7 µM and 16.4 µM | [4] > 100 µM and 58.3 µM | [5] 35.6 µM and 63.7 µM | [6] 22.4 µM and 39.7 µM | [7] 22.2 µM and 15 µM | [8] 26.5 µM and 41.7 µM | [9] 19.7 µM and 31 µM | [10] 30.1 µM and 42.5 µM | [11] 24.9 µM and 26.5 µM | [12] 17.4 µM and 34.4 µM | [13] 22.5 µM and 12.2 µM | [14] 28.2 µM and 24.4 µM | [15] 19.4 µM and 16.8 µM | [16] 18.5 µM and 17.6 µM | [17] 18.2 µM and 19.7 µM | [18] 66.7 µM and 34.8 µM | [19] 34.8 µM and 26.2 µM | [20] 16 µM and 19.5 µM | [21] 34.6 µM and 17.8 µM | [22] 1.62 µM | [23] 19.6 µM and 26.9 µM | [24] 15 µM and 17 µM | [25] 31.2 µM and 16 µM | [26] 48.1 µM and 43.4 µM | [27] 17.8 µM and 25.5 µM | [28] 15.6 µM and 12.6 µM | [29] 23.3 µM and 16 µM | [30] 63.2 µM and 52.5 µM | [31] 25.9 µM and 16.4 µM | [32] 12.9 µM and 17.2 µM | [33] 20.7 µM and 17.5 µM | [34] 32 µM and 16.2 µM

NC(CCCCCP(=O)(O)O)C(=O)O (stereo unspecified) [AP-7]
inactive: [1] > 100 µM | [35] > 100 µM | [2] > 100 µM | [36] > 100 µM | [3] > 100 µM | [4] > 100 µM | [37] > 100 µM | [38] > 100 µM | [5] > 100 µM | [6] > 100 µM | [39] > 100 µM | [40] > 100 µM | [7] > 100 µM | [41] > 100 µM | [8] > 100 µM | [10] > 100 µM | [12] > 100 µM | [13] > 100 µM | [14] > 100 µM | [15] > 100 µM | [42] > 100 µM | [16] > 100 µM | [17] > 100 µM | [44] > 100 µM | [18] > 100 µM | [19] > 100 µM | [20] > 100 µM | [45] > 100 µM | [21] > 100 µM | [22] > 100 µM | [23] > 100 µM | [46] > 100 µM | [47] > 100 µM | [24] 80.7 µM | [25] > 100 µM | [26] > 100 µM | [27] > 100 µM | [28] > 100 µM | [29] > 100 µM | [30] 83.8 µM | [48] > 100 µM | [31] > 100 µM | [49] > 100 µM | [50] > 100 µM | [51] > 100 µM | [52] > 100 µM | [32] > 100 µM | [53] > 100 µM | [54] > 100 µM | [55] > 100 µM | [34] > 100 µM | [56] > 100 µM
> 100 µM: [43]

Nc1ccccc1NC(=O)c1ccc(CNC(=O)OCc2cccnc2)cc1 [ENTINOSTAT]
3.56 µM: [43]
active: [35] 0.805 µM | [4] 0.524 µM | [6] 1.04 µM | [57] 0.501 µM | [41] 0.659 µM | [10] 0.627 µM | [11] 845 nM | [12] 0.158 µM | [13] 0.859 µM | [14] 0.557 µM | [42] 0.92 µM | [16] 0.989 µM | [17] 0.424 µM | [58] 0.429 µM | [21] 0.993 µM | [22] 0.908 µM | [47] 0.757 µM | [24] 0.622 µM | [27] 0.778 µM | [30] 0.708 µM | [31] 0.558 µM | [51] 0.759 µM | [52] 0.415 µM | [53] 0.125 µM | [55] 0.929 µM | [34] 0.624 µM
inactive: [1] 3.31 µM | [2] 1.54 µM | [36] 2.43 µM | [3] 1.88 µM | [38] 1.59 µM | [5] 3.76 µM | [39] > 23.4 µM | [7] 2.16 µM | [15] 1.51 µM | [44] 2.88 µM | [18] 1.41 µM | [19] 2.02 µM | [20] 3.5 µM | [45] 1.72 µM | [23] 2.65 µM | [46] 3 µM | [25] 2.78 µM | [26] 1.97 µM | [28] 2.1 µM | [29] 4.89 µM | [48] 1.38 µM | [49] 1.17 µM | [50] 4.9 µM | [54] 4.75 µM | [33] 3.35 µM | [59] 2 µM | [56] 1.24 µM

CC(C)C(C/C=C1\CC(CO)(COC(=O)c2ccccc2)OC1=O)C(C)C (stereo unspecified)
inactive: [1] 13.1 µM | [2] 19.1 µM | [36] 19 µM | [3] 16.7 µM | [4] 19.1 µM | [37] 18.7 µM | [38] 27.6 µM | [6] 14.8 µM | [57] 19.8 µM | [39] 17.5 µM | [40] 84.9 µM | [7] 23 µM | [8] 32.2 µM | [9] 16.8 µM | [10] 12 µM | [11] 20900 nM | [13] 19.5 µM | [14] 18.2 µM | [15] 21.2 µM | [42] 19 µM | [16] 13.4 µM | [17] > 100 µM | [44] 15.8 µM | [18] 22.4 µM | [19] 14.5 µM | [20] 21.7 µM | [58] 21.3 µM | [45] 14.9 µM | [21] 19.2 µM | [22] 21.6 µM | [23] 17.9 µM | [46] 15.8 µM | [47] 12.1 µM | [24] > 100 µM | [25] 20.7 µM | [26] 16.3 µM | [27] 21.2 µM | [28] 21.3 µM | [29] 15.3 µM | [30] 93.8 µM | [48] 20.2 µM | [31] 15.8 µM | [49] 11.5 µM | [50] 28.1 µM | [51] 17.4 µM | [52] 17.2 µM | [32] 18.8 µM | [53] 14.3 µM | [54] 17.2 µM | [33] 14.8 µM | [55] 18 µM | [59] 13.7 µM | [34] 10.4 µM | [56] 20.7 µM
21.6 µM: [43]
